In PMC10482301 (PLOS Neglected Tropical Diseases, 2023):

Legend:
[1] = target: T1, UDP-glucose 6-dehydrogenase (HsUGDH) (Homo sapiens, UniProt O60701); test: spectrophotometric assay, helper enzyme inhibited (no numbers shown); type: biochemical
T1 construct: gene UGDH; recombinant HsUGDH with N-terminal Strep-tag and four-residue linker
T1 sequence (O60701 1-494): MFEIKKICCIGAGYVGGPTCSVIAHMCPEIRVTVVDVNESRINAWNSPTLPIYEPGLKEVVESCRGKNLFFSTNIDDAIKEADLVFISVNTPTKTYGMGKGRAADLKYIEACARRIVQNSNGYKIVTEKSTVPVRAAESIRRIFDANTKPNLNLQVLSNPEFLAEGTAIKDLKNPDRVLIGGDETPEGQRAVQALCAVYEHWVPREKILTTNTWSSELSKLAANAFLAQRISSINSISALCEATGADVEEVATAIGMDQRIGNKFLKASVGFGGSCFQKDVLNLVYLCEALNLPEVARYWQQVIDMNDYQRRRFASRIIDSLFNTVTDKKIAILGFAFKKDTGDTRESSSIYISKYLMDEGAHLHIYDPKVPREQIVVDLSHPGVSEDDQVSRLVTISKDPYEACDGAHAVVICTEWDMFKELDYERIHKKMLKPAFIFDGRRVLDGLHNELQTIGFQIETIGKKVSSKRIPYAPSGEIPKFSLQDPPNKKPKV

[2] = target: T2, UDP-glucose 4-epimerase (EhGalE) (Entamoeba histolytica, UniProt C4M746); test: RP-HPLC of UDP-Gal to UDP-Glc conversion by purified recombinant enzyme after […] min preincubation; type: biochemical
T2 construct: gene EHI_192050; full-length recombinant EhGalE (XP_650346) with N-terminal Strep-tag and Gly-Gly-Gly-Ser linker
T2 sequence (C4M746 1-341): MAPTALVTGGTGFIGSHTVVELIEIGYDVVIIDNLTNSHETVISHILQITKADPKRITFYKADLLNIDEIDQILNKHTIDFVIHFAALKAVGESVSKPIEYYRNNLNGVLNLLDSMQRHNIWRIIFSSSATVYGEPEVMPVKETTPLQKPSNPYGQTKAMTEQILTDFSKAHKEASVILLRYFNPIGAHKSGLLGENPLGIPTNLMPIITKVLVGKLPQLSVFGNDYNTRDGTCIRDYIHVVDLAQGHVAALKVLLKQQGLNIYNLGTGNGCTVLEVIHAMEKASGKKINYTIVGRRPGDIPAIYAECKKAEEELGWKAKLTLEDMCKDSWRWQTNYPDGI

| SMILES | spectrophotometric assay, helper enzyme inhibited (no numbers shown) [1] | IC50 [2] [nM] |
| --- | --- | --- |
| CC/C(=C(/CC)c1ccc(O)cc1)c1ccc(O)cc1 [diethylstilbestrol] | the helper enzyme UGDH was inhibited by all three compounds | – |
| O=c1c2ccccc2[se]n1-c1ccccc1 [ebselen] | the helper enzyme UGDH was inhibited by all three compounds | 2190 |
| C=C(CC)C(=O)c1ccc(OCC(=O)O)c(Cl)c1Cl [ethacrynic acid] | the helper enzyme UGDH was inhibited by all three compounds | – |
